Measurements reported in ChEMBL document CHEMBL1135890, “Structure-activity relationships of 2'-fluoro-2',3'-unsaturated D-nucleosides as anti-HIV-1 agents” (J Med Chem, 2002).

Molecular target: Adenosine deaminase (Bos taurus) (UniProt P56658)
Assay: Michaelis constant was determined against mammalian Adenosine deaminase; NS = not a substrate of adenosine deaminase

Chain of Adenosine deaminase (Bos taurus) (P56658 whole entry, looked up): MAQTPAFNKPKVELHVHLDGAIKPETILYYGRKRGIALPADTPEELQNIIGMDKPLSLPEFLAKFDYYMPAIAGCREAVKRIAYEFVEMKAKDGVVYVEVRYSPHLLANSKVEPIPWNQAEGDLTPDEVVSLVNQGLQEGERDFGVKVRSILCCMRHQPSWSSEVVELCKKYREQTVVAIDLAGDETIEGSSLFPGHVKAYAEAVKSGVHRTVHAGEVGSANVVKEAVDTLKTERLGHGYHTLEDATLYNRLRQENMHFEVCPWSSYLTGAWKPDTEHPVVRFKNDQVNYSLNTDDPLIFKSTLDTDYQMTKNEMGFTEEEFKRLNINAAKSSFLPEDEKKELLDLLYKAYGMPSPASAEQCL

Nc1ncnc2c1ncn2[C@@H]1O[C@H](CO)C=C1F was tested, and the NS was “Not a substrate”.
